The test system of experiment [1] is SF-268. The experiment is described as follows: Antiproliferative activity against human SF-268 cells assessed as inhibition of cell growth by MTT assay. The note with it: read-out: ED50 (the source's name). The format is functional. A general note: Tetrazolium dyes change colour on reduction, which living cells bring about.
The test system of experiment [2] is ECV-304. The experiment is described as follows: Cytotoxicity against human ECV-304 cells assessed as reduction in cell growth by measuring lethal concentration incubated for 72 hrs by MTT assay. The format is functional. As to conditions: read-out: LC50 (the source's name).
A short description of experiment [3]: Antiproliferative activity against human SWO-38cells assessed as reduction in cell growth measured for 24 hrs by MTT assay. The experiment is classed as functional, cell-based. The note with it: SWO-38, 24 h.
Experiment [4] in a line: Cytotoxicity against rat RT-2 cells assessed as reduction in cell growth by measuring lethal concentration incubated for 24 hrs by MTT assay. The experiment is classed as functional. As to conditions: RT2, read-out: LC50 (the source's name).
In experiment [5] the test system is ECV-304. Kind of experiment: Cytotoxicity against human ECV-304 cells assessed as reduction in cell growth by measuring lethal concentration incubated for 24 hrs by MTT assay. The experiment is classed as functional. The note with it: read-out: LC50 (the source's name).
Experiment [6] can be described thus: Cytotoxicity against rat RT-2 cells assessed as reduction in cell growth by measuring lethal concentration incubated for 72 hrs by MTT assay. The experiment is classed as functional. The note with it: RT2, read-out: LC50 (the source's name).
Experiment [7] relates to U-251. The experiment is described as follows: Antiproliferative activity against human U-251MG cells assessed as reduction in cell growth measured for 24 hrs by MTT assay. The format is functional, cell-based. As to conditions: U-251, 24 h.
The test system of experiment [8] is U-87 MG. The experiment is described as follows: Antiproliferative activity against human U-87 MG cells assessed as reduction in cell growth measured for 24 hrs by MTT assay. The experiment is classed as functional, cell-based, U-87MG ATCC.
The nature of experiment [9]: Inhibition of rat C6 cells at 2 micromol/L measured for 24 hrs relative to control. The format is functional. The note with it: C6, 24 h, dose 2 µmol/L.
A short description of experiment [10]: Inhibition of rat C6 cells at 1 micromol/L measured for 24 hrs relative to control. The format is functional. As to conditions: C6, 24 h, dose 1 µmol/L.
Experiment [11] deals with U-251. Kind of experiment: Antiproliferative activity against human U-251MG cells assessed as reduction in cell viability incubated for 48 hrs by SRB assay. As to conditions: U-251, 48 h. The experiment is classed as functional, cell-based. Background: Sulforhodamine B stains cellular protein and so reports cell mass.
The subject of experiment [12] is HUVEC. The experiment is described as follows: Antivascular activity against HUVEC cells assessed as inhibition of capillary tube formation at 50 incubated for 6 hrs by microscopy based analysis relative to control. The experiment is classed as functional, Homo sapiens. Set-up: scale not given: the % may be the effect or the level left.
A short description of experiment [13]: Antitumor activity against mouse GL261 cells implanted in C57BL/6 mouse model assessed as increase in tumor growth delay under radiation at 150 mg/kg via oral gavage (reference value: 12.7+/-2.8 days). The format is functional.
Experiment [14] in a line: Antiproliferative activity against human TMZ-sensitive LN-229 cells assessed as reduction in cell growth incubated for 48 hrs by MTT assay. The format is functional, cell-based, TMZ-sensitive LN-229 cell. As to conditions: LN-229, 48 h.
Experiment [15] has as its system U-118-MG. Kind of experiment: Antiproliferative activity against human U-118-MG cells assessed as reduction in inhibition of cell growth incubated for 72 hrs by MTT assay. The experiment is classed as functional, cell-based.
The nature of experiment [16]: Antitumor activity against mouse GL261 cells implanted in C57BL/6 mouse model assessed as increase in tumor growth delay without radiation at 150 mg/kg via oral gavage (reference value: 12.7+/-2.8 days). The format is functional.
The test system of experiment [17] is C6. Kind of experiment: Antiproliferative activity against rat C6 cells assessed as reduction in cell growth measured for 96 hrs by WST-1 assay. The format is functional, cell-based. As to conditions: C6, 96 h.
The subject of experiment [18] is U-87 MG. Kind of experiment: Antiproliferative activity against human U-87 MG cells assessed as reduction in inhibition of cell growth incubated for 72 hrs by MTT assay. The format is functional, cell-based, U-87MG ATCC.
A short description of experiment [19]: Antiproliferative activity against human TMZ-sensitive U-251MG cells assessed as reduction in cell growth incubated for 48 hrs by MTT assay. The experiment is classed as functional, cell-based, TMZ-sensitive U-251MG cell. The note with it: U-251, 48 h.
Experiment [20] is described as follows: Antiproliferative activity against human TMZ-resistant U-251MG cell assessed as reduction in cell growth incubated for 48 hrs by MTT assay. The format is functional, cell-based. The note with it: U-251, 48 h.
The nature of experiment [21]: Antiproliferative activity against human TMZ-resistant LN-229 cells assessed as reduction in cell growth incubated for 48 hrs by MTT assay. The format is functional, cell-based, TMZ-resistant LN-229 cell. The note with it: LN-229, 48 h.
Experiment [22] concerns HUVEC. The experiment is described as follows: Antivascular activity against HUVEC cells assessed as inhibition of capillary tube formation at 100 incubated for 6 hrs by microscopy based analysis relative to control. The experiment is classed as functional, Homo sapiens. Set-up: scale not given: the % may be the effect or the level left.
The test system of experiment [23] is C6. The experiment is described as follows: Antitumor activity against rat C6 cells implanted in athymic nude mouse assessed as reduction in tumor volume at 300 mg/kg, IC administered once daily for 21 days relative to control. The format is functional. Also noted: scale not given: the % may be the effect or the level left. The note with it: time 21 day.
The nature of experiment [24]: Downregulation of HIF-1alpha expression in human T98G cells at 150 uM relative to control. The experiment is classed as functional.
For experiment [25], the system named is HUVEC. The experiment is described as follows: Antivascular activity against HUVEC cells assessed as inhibition of capillary tube formation at 150 incubated for 6 hrs by microscopy based analysis relative to control. Set-up: scale not given: the % may be the effect or the level left. The experiment is classed as functional, Homo sapiens.
Experiment [26] has as its system C6. Kind of experiment: Antitumor activity against rat C6 cells implanted in athymic nude mouse assessed as reduction in tumor volume at 300 mg/kg, sc administered once daily for 21 days relative to control. The experiment is classed as functional. Set-up: scale not given: the % may be the effect or the level left. The note with it: time 21 day.
For experiment [27], the system named is T98G. The experiment is described as follows: Induction of apoptosis in human T98G cells assessed as fold increase in apoptosis at 10 uM under radiation measured after 24 hrs by annexin V and PI staining based flow cytometry analysis (Rvb=3.7). The experiment is classed as functional. For orientation: Flow cytometry measures light scatter and fluorescence of single cells or particles in a stream.

A short description of experiment [28]: Antiproliferative activity against human TMZ-sensitive A-172 cells assessed as reduction in cell growth incubated for 48 hrs by MTT assay. The format is functional, cell-based, TMZ-sensitive A-172 cell. The note with it: A 172, 48 h.
Experiment [29] concerns C6. The experiment is described as follows: Anticancer activity against rat C6 cells assessed as reduction in cell growth at 10 ug/ml incubated for 24 hrs by MTT assay relative to control. The format is functional.
The nature of experiment [30]: Antiproliferative activity against human TMZ-resistant A-172 cells assessed as reduction in cell growth incubated for 48 hrs by MTT assay. The experiment is classed as functional, cell-based. As to conditions: TMZ-resistant A-172 cell.
The subject of experiment [31] is LN-229. Kind of experiment: Antiproliferative activity against human LN-229 cells assessed as reduction in inhibition of cell growth incubated for 72 hrs by MTT assay. The format is functional, cell-based. The note with it: LN-229, 72 h.
In experiment [32] the test system is T98G. Kind of experiment: Antiproliferative activity against human T98G cells assessed as reduction in inhibition of cell growth incubated for 72 hrs by MTT assay. The experiment is classed as functional, cell-based.
Experiment [33] can be described thus: Antitumor activity against mouse GL261 cells implanted in C57BL/6 mouse model assessed as fold reduction in cell proliferation under radiation at 150 mg/kg via oral gavage (reference value: 3.3 fold). The format is functional.
Experiment [34] in a line: Downregulation of HIF-1alpha expression in human U-87 MG cells at 150 uM relative to control. The experiment is classed as functional, U-87MG ATCC.
The test system of experiment [35] is U-118-MG. Kind of experiment: Antiproliferative activity against human U-118-MG cells assessed as inhibition of cell proliferation incubated for 72 hrs by CCK8 assay. The format is functional, cell-based.
The nature of experiment [36]: Cytotoxicity against human M059K cells assessed as reduction in cell viability incubated for 72 hrs by MTT assay. The experiment is classed as functional, cell-based.
In experiment [37] the test system is M059J. Kind of experiment: Cytotoxicity against human M059J cells assessed as reduction in cell viability incubated for 72 hrs by MTT assay. The format is functional, cell-based.
For experiment [38], the system named is U-87 MG. The experiment is described as follows: Antitumor activity against human U-87 MG cells xenografted in BALB/c nude mouse assessed as reduction in tumor growth at 5 mg/kg, iv administered once daily for 16 days relative to control. The experiment is classed as functional, U-87MG ATCC. Also noted: scale not given: the % may be the effect or the level left. As to conditions: time 16 day.

Experimental findings from ChEMBL document CHEMBL6115010, “Targeting glioma with heteroaromatic alkaloids: A review of potential therapeutics” (Bioorg Med Chem, 2025) are described below.

In brackets after ≈: the same amount, converted by molar mass.

`O=C1N[C@@H]2C(=C[C@H](O)[C@@H](O)[C@H]2O)c2cc3c(c(O)c21)OCO3` [NARCICLASINE]: the EC50 in experiment [1] was found to be 0.021 µg/mL (≈ 0.0683 µM).
In the case of `COc1ccc2cc1Oc1ccc(cc1)C[C@H]1c3cc(c(OC)cc3CCN1C)Oc1c(OC)c(OC)cc3c1[C@H](C2)N(C)CC3` [FANCHININ], the CC50 in [2] is 25.1 µM; in [4], 22.6 µM; in experiment [5], 34.2 µM; in experiment [6], 11.3 µM. In addition, the IC50 in experiment [3] worked out at 50 µg/mL (≈ 80.4 µM); in [7], 56.1 µg/mL (≈ 90.1 µM); in experiment [8], 10.8 µg/mL.
With `C[n+]1cc2c3c(ccc2c2ccc4cc5c(cc4c21)OCO5)OCO3`, the inhibition at 2 µM in [9] came out at 82%. In experiment [10], this compound came in with an inhibition at 1 µM of 35%.
For the compound `O[C@H]1[C@H]2c3cc4c(cc3CN3CCC(=C[C@@H]1O)[C@H]23)OCO4` [LYCORINE], the IC50 in experiment [11] was 10 µM.
Turning to `COc1ccc2c(c1OC)C(=O)O[C@@H]2[C@H]1c2c(cc3c(c2OC)OCO3)CCN1C` [NOSCAPINE], the Activity was 30% in [12]; 40% in experiment [22]; 78% in experiment [23]; 90% in experiment [24]; 40% in [25]; 60% in experiment [26]. For the same compound, in experiment [34], the Activity is listed as 60%. Besides, the Time in experiment [13] is 18 days; in [16] it was 8 days. Further, the IC50 was 70 µM in [14]; 91 µM in experiment [15]; 250 µM in experiment [17]; 131 µM in experiment [18]; 40 µM in [19]; 30 µM in experiment [20]. Also, the IC50 in [21] was found to be 75 µM; in experiment [28] it was 20 µM; in [30], 60 µM; in experiment [31], 86 µM; in [32], 97 µM. For the same compound, the “fold change (FC)” value in experiment [27] is on record as 6.4; in experiment [33], 5.6. The inhibition at 10 µg/mL in [29] amounted to 49%.
On to `COc1ccc2cc1Oc1ccc(cc1)C[C@H]1c3cc(c(OC)cc3CCN1C)Oc1c(O)c(OC)cc3c1[C@H](C2)N(C)CC3` [FANGCHINOLINE], for which the IC50 in [35] is 44.2 µM; in experiment [8], 39.3 µM.
As for `COc1cc2c(cc1O)CCN[C@]21CS[C@@H]2c3c(OC(C)=O)c(C)c4c(c3[C@@H](COC1=O)N1[C@@H]2[C@H]2c3c(cc(C)c(OC)c3O)C[C@@H]([C@@H]1O)N2C)OCO4`, the IC50 in experiment [36] came to 0.0002 µM; in [37], 0.041 nM.
Consider `O=C1c2ccccc2-[n+]2ccc3c([nH]c4ccccc43)c21` [FASCAPLYSIN], for which the Activity in [38] is on record as 54.92%.

What is called IC50 is the point on the concentration scale where inhibition reaches its midpoint. In general, inhibition refers to the relative decrease from the control value, in per cent.
